Reference: ChEMBL document CHEMBL5226296, “Reversible Lysine Specific Demethylase 1 (LSD1) Inhibitors: A Promising Wrench to Impair LSD1” (J Med Chem, 2021)
Each block holds one compound with its values, some of them ahead of it.

Assays:
[1] = target: T1, Amine oxidase [flavin-containing] B (Homo sapiens, UniProt P27338); experiment: Inhibition of recombinant MAO-B (unknown origin) by Spectrometric analysis
T1 sequence (P27338 whole entry): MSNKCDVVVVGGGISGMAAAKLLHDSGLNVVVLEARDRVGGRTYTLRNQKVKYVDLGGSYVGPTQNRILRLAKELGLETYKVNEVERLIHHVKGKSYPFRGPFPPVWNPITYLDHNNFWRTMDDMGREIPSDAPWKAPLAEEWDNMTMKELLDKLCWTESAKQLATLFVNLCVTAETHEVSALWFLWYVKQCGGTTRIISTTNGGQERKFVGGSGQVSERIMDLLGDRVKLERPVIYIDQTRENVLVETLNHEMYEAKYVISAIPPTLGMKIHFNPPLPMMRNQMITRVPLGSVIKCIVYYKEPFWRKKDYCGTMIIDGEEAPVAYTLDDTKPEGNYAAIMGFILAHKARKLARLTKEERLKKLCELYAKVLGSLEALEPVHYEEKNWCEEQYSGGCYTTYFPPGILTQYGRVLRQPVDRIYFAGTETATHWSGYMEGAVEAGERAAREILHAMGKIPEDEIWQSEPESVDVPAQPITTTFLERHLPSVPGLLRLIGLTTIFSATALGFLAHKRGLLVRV

[2] = target: T2, Amine oxidase [flavin-containing] A (Homo sapiens, UniProt P21397); experiment: Inhibition of recombinant MAO-A (unknown origin) by Spectrometric analysis
T2 sequence (P21397 whole entry): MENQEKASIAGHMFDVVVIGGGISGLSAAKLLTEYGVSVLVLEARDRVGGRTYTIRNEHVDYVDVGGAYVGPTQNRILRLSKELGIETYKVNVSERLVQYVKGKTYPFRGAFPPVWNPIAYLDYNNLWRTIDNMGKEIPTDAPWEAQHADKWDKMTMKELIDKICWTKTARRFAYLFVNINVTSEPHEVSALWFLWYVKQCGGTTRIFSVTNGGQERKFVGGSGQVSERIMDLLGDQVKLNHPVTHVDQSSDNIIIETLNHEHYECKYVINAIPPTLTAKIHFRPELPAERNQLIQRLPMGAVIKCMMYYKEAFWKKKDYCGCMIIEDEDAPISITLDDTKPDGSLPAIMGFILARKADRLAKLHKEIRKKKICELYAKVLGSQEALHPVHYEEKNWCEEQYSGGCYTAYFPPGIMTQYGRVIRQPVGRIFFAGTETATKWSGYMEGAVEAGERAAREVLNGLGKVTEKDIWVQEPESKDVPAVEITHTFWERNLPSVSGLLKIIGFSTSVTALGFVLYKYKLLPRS

[3] = target: T3, Lysine-specific histone demethylase 1A (Homo sapiens, UniProt O60341); experiment: Inhibition of human LSD1 (172 to 833 residues) expressed in Escherichia coli Rosetta 2 strain using H3K4me1 (1 to 21 residues) as substrate by Amplex Red reagent based fluorescence assay
MGC-803 = experiment: Antiproliferative activity against human MGC-803 cells assessed as reduction in cell viability incubated for 72 hrs by MTT assay; assay type: functional, cell-based
[4] = Cytotoxicity against human GES1 cells assessed as reduction in cell viability incubated for 72 hrs by MTT assay; assay type: toxicity, cell-based
[5] = target: T3, Lysine-specific histone demethylase 1A; experiment: Inhibition of recombinant LSD1 (unknown origin)
[6] = target: T3, Lysine-specific histone demethylase 1A; experiment: Inhibition of human GST-tagged LSD1 demethylase activity using H3K4 peptide as substrate by MALDI-TOF analysis
[7] = target: T2, Amine oxidase [flavin-containing] A; experiment: Inhibition of recombinant MAO-A (unknown origin) by MAO-Glo assay
[8] = target: T1, Amine oxidase [flavin-containing] B; experiment: Inhibition of recombinant MAO-B (unknown origin) by MAO-Glo assay
MAO-B [9] = target: T4, MAO-B (Homo sapiens, UniProt P27338); experiment: Inhibition of recombinant MAO-B (unknown origin) at 1 uM by MAO-GloTM assay
T4 sequence (P27338 whole entry): T1 sequence (P27338 whole entry)

MAO-A [10] = target: T5, MAO-A (Homo sapiens, UniProt P21397); experiment: Inhibition of recombinant MAO-A (unknown origin) at 1 uM by MAO-GloTM assay
T5 sequence (P21397 whole entry): T2 sequence (P21397 whole entry)

[11] = target: T3, Lysine-specific histone demethylase 1A; experiment: Inhibition of LSD1 (unknown origin) expressed in Escherichia coli BL21 (DE) using H3K4me2 peptide as substrate incubated for 30 mins by Amplex Red reagent based fluorescence analysis
[12] = target: T3, Lysine-specific histone demethylase 1A; experiment: Inhibition of LSD1 (unknown origin)
K562 = experiment: Antiproliferative activity against human K562 cells assessed as reduction in cell viability incubated for 6 days by MTS assay; assay type: functional, cell-based; settings: K562, 144 h
MAO-A [13] = target: T5, MAO-A; experiment: Inhibition of recombinant MAO-A (unknown origin) at 1 uM incubated for 15 mins followed by luciferin substrate addition and measured after 60 mins by Promega-Glo analysis; settings: probe luciferin substrate, time 75 min
OCI-AML-3 = experiment: Antiproliferative activity against human OCI-AML-3 cells assessed as reduction in cell viability incubated for 6 days by MTS assay; assay type: functional, cell-based; settings: OCI-AML-3, 144 h
U-937 = experiment: Antiproliferative activity against human U-937 cells assessed as reduction in cell viability incubated for 6 days by MTS assay; assay type: functional, cell-based; settings: U-937, 144 h
Raji = experiment: Antiproliferative activity against human Raji cells assessed as reduction in cell viability incubated for 6 days by MTS assay; assay type: functional, cell-based; settings: 144 h
MAO-B [14] = target: T4, MAO-B; experiment: Inhibition of recombinant MAO-B (unknown origin) at 1 uM incubated for 15 mins followed by luciferin substrate addition and measured after 60 mins by Promega-Glo analysis; settings: probe luciferin substrate, time 75 min
THP-1 = experiment: Antiproliferative activity against human THP-1 cells assessed as reduction in cell viability incubated for 6 days by MTS assay; assay type: functional, cell-based; settings: THP-1, 144 h
[15] = target: T3, Lysine-specific histone demethylase 1A; experiment: Inhibition of LSD1 (unknown origin) using H3K4me2 peptide as substrate at 1 uM incubated for 30 mins by Amplex Red reagent based fluorescence analysis
MDA-MB-231 = experiment: Antiproliferative activity against human MDA-MB-231 cells assessed as reduction in cell viability incubated for 48 hrs by MTT assay; assay type: functional, cell-based; settings: MDA-MB-231, 48 h
[16] = target: T3, Lysine-specific histone demethylase 1A; experiment: Inhibition of LSD1 (unknown origin) by fluorescence analysis
[17] = target: T3, Lysine-specific histone demethylase 1A; experiment: Inhibition of LSD1 (unknown origin) by fluorescence based microplate reader analysis
[18] = target: T3, Lysine-specific histone demethylase 1A; experiment: Inhibition of LSD1 (unknown origin) using methylated histone H3K4 peptide as substrate by fluorescence analysis

SMILES: CSCC[C@@H]1NC(=O)[C@@H](NC(=O)[C@H](CCCNC(=N)N)NC(=O)[C@H](C)N)CCCCNC(=O)CC[C@@H](C(=O)N[C@@H](CCC(=O)O)C(=O)N[C@@H](C)C(=O)N[C@@H](CCCNC(=N)N)C(=O)N[C@@H](CCCCN)C(=O)N[C@@H](CO)C(=O)N[C@H](C(=O)O)[C@@H](C)O)NC1=O
Ki [3]: 2.3 µM

SMILES: C=CC(=O)Nc1cc(Nc2nccc(-c3cn(C)c4ccccc34)n2)c(OC)cc1N(C)CCN(C)C [OSIMERTINIB]
IC50 [5]: 3.98 µM

SMILES: N=C(N)c1ccc(C(=O)N2CCN(C(=O)c3cc(CN4CCN(C(=N)N)CC4)cc([N+](=O)[O-])c3)CC2)cc1
IC50 [6]: 10.5 µM

SMILES: COc1cc(CNC(=O)CCCC/C=C/C(C)C)ccc1O [CAPSAICIN]
IC50 [12]: 0.6 µM

SMILES: COc1c(O)cc2oc3cc(O)c(CC=C(C)C)c(O)c3c(=O)c2c1CC=C(C)C [MANGOSTIN]
IC50 (MDA-MB-231): 12.8 µM | IC50 [16]: 2.81 µM

SMILES: CSCCc1nc(-c2cccc(N)c2)oc1C
IC50 [18]: 16.1 µM

SMILES: COC(=O)c1cc(CN2CCN(C(=N)N)CC2)cc(C(=O)N2CCN(C(=O)c3ccc(C(=N)N)cc3)CC2)c1
IC50 [6]: 5.27 µM

Now from value to compound, other results behind:

IC50 [1]: 138 µM | IC50 [2]: 71 µM
SMILES: COCc1cccc(NC(=O)c2cc3ccccc3n2C)c1COc1ccc(OC2CCNCC2)cc1

IC50 (MGC-803): 2.95 µM
SMILES: COc1ccc(-c2coc3cc(O)cc(O)c3c2=O)cc1 [BIOCHANIN]
IC50 at 72 h [4]: > 32 µM

IC50 [7]: > 20 µM | IC50 [8]: > 20 µM
SMILES: CC(C)(C)OC(=O)N1CCN(C(=S)SCC(=O)Nc2ccc(C(=O)/C=C/c3ccccc3F)cc2)CC1

IC50 [1]: 226 µM | IC50 [2]: 90 µM
SMILES: Cc1ccc(S(=O)(=O)Nc2cccc(C(=O)NCCc3ccc([N+](=O)[O-])cc3)c2)cc1

IC50 [1]: 344 µM | IC50 [2]: 109 µM
SMILES: Cc1ccc(S(=O)(=O)Nc2cccc(C(=O)NCCc3ccc(O)cc3)c2)cc1

IC50 [1]: 298 µM | IC50 [2]: 63.9 µM
SMILES: O=C(NCCc1ccc([N+](=O)[O-])cc1)c1cccc(NS(=O)(=O)c2ccccc2)c1

inhibition at 1 µM (MAO-B [9]): < 30% | inhibition at 1 µM (MAO-A [10]): < 30% | IC50 [11]: 0.14 µM
SMILES: COc1cc2c(cc1OC)-c1cc3ccc4c(c3c[n+]1CC2)OCO4

IC50 (K562): 1.3 µM | inhibition at 1.25 h, 1 µM (MAO-A [13]): < 10% | IC50 (OCI-AML-3): 1.79 µM | IC50 (U-937): 1.22 µM | IC50 (Raji): 1.4 µM | inhibition at 1.25 h, 1 µM (MAO-B [14]): < 10% | IC50 (THP-1): 0.45 µM | inhibition [15]: 95.6%
SMILES: C#CCSc1nc(Sc2nnnn2-c2ccccc2)c2nnn(Cc3ccccc3Cl)c2n1

IC50 (MDA-MB-231): 19.4 µM | IC50 [17]: 2.98 µM
SMILES: COc1c(O[C@H]2O[C@@H](C(=O)O)[C@H](O)[C@@H](O)[C@@H]2O)cc(O)c2c(=O)cc(-c3ccccc3)oc12
